Test results: publication PMC9555310, “Novel inhibitors and activity-based probes targeting serine proteases” (Frontiers in Chemistry, 2022)

How the values were obtained:
trypsin = target: T1, trypsin (Sus scrofa, UniProt P00761); assay: Activity-based profiling of trypsin (SDS-PAGE, streptavidin-HRP western blot); assay type: binding, porcine; conditions: added 30 min prior to NAP830
T1 construct: purchased Sigma-Aldrich; host or cells: porcine pancreas
Method: Samples of recombinant protease (trypsin, plasmin, thrombin, chymotrypsin, or HNE, as indicated in the relevant figure legends) were treated with each of the newly synthesized compounds at a concentration of 50 μM, for 30 min, at 37°C. A control sample (no ABP) was prepared by treating the recombinant protease with solvent vehicle (DMF) only, used to prepare the stock solution of each ABP. Samples were also pre-treated (±90°C for 30 min) before being incubated with each putative ABP. With trypsin and thrombin, further samples were prepared where Z-Arg^P-(OPh)2 or NAP559, respectively, was added 30 min prior to the addition of the ABP under examination. All treated samples were then denatured with SDS containing reducing treatment buffer (10 min at 95°C), followed by resolution by SDS-PAGE and subjected to Western blotting. Resolved proteins were then transferred onto the nitrocellulose membrane and labeled with streptavidin-HRP. […]
Following transfer, the extra protein binding sites on the membrane were blocked by addition of 3% (w/v) BSA in TBST (20 mM Tris, 137 mM NaCl, 1% (v/v) Tween 20, pH 7.6) and agitated gently at room temperature for 30 minutes. The biotin-labelled proteases were then detected by addition of Streptavidin-HRP (Vector Laboratories) in 3% (w/v) BSA in TBST at a concentration of 1:20000, for 1 hour at room temperature. […]

neutrophil elastase (NE) = target: T2, neutrophil elastase (NE) (Homo sapiens, UniProt P08246); design: method as in Gilmore et al. (2009); conditions: ref Gilmore et al. (2009); cited from earlier work
T2 construct: purchased Calbiochem
T2 sequence (P08246 30-267): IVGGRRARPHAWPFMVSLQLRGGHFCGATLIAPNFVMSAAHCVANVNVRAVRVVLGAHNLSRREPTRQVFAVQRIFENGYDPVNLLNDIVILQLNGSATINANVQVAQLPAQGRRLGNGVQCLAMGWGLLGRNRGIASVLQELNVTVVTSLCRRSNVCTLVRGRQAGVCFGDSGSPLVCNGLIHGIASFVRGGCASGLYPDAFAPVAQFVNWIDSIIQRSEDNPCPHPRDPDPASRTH

T1 sequence (P00761 9-231): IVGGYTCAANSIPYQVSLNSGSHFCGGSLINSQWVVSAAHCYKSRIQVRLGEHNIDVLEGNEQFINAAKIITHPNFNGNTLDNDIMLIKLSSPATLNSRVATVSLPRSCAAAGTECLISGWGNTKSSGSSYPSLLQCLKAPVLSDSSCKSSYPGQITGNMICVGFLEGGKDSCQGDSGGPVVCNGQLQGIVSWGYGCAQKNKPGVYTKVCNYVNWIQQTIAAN

Molecule | effect of pre-treatment of trypsin on signal detected by NAP830 (trypsin) | k 3 / K i (neutrophil elastase (NE)) [M⁻¹ s⁻¹]
NC(N)=NCCCC(NC(=O)OCc1ccccc1)P(=O)(Oc1ccccc1)Oc1ccccc1 (centres unmarked) [Z-Arg^P-(OPh)2, reference compound] | quenching/diminution in the signal detected by NAP830 | –
biotin-PEG-succinyl-Val^P-(OPh)2 [QUBEL1] | – | 215
